According to patent US9359338B2, “Cyclopropanecarboxamido-substitute aromatic compounds as anti-tumor agents” (Crown Bioscience Inc. (Taiwan), priority 2012, dated 2016):

These molecules were tested on PLC-PRF-5 cells (assay: Inhibition of proliferation of PLC-PRF-5 cells (ATPlite)). Settings: Homo sapiens, PLC-PRF-5, PLC-PRF-5 cells; read-out: PLC-PRF-5 cell proliferation IC50.
Type: cell-based
Description: Inhibitory Activity of Compounds to the Proliferation of PLC-PRF-5 Cells
• [experimental Method]: Use PerKinElmer's ATPlite™ Luminescence ATP Detection Assay System to evaluate the inhibitory activity of compounds to the proliferation of PLC-PRF-5 cells. • [Instruments]: ENVISION plate reader (PerKinElmer) and centrifuge (Thermo Scientific, Sorvall ST16R) • [material]: PLC-PRF-5 cells (ATCC), 96-well plate (Nunc, #165305), DMEM medium (Gibco, #11965-092), PBS (Invitrogen, #10010023), fetal bovine serum (Gibco, #16000044), DMSO (Sigma, #D2650), ATPlite™ Luminescence ATP Detection Assay System (PerkinElmer, #6016949), purified water (Millipore, type: Milli-Q). • [Protocol]: Grow PLC-PRF-5 cells in DMEM supplemented with 10% FBS. When the cells reach 80% confluency, collect cells by trypsinization and centrifugation at 800 rpm for 3 min. Resuspend cells with appropriate volume of medium and count cell numbers. Adjust cell concentration to 50000 cells/mL, and split 160 μL cell suspension per well into 96-well plates. Transfer the plates into cell culture incubator (37° C., 5% CO2) and incubate cells for 2 hrs. Prepare compound serial dilutions in culture medium with total 8 compound concentrations at 3-fold serial dilutions (the final top concentration starts from 30 μM). Dispense 40 μL of each test compound dilution into corresponding wells with DMSO at 0.3% final concentration. Continue incubating cells in cell culture incubator for additional 96 hrs at 37° C., 5% CO2. Discard culture medium, and wash cells once with PBS. Add 50 μL cell lysis buffer per well and shake plates for 5 min at room temperature to ensure complete lysis of cells. Then add 50 μL of substrate solution and shake plates for 1 min at room temperature. Allow the plates to incubate at room temperature for 5 min, followed by recording the luminescence signals using Envision, and subsequent data analysis. • [Samples]: Compounds in the examples and Sorafenib (positive control) • [Data analysis]: Use CBIS data analysis software to calculate IC50 values

Structure (SMILES)	IC50 [µM]
Cc1ccc(NC(=O)Nc2ccc(Oc3ccnc(NC(=O)C4CC4)c3)cc2)cc1C(F)(F)F [Exe. 140]	0.23
CC(F)(F)c1cc(NC(=O)Nc2ccc(Oc3ccnc(NC(=O)C4CC4)c3)cc2)ccc1F [Exe. 150]	0.737
Cc1ccc(NC(=O)Nc2ccc(Oc3ccnc(NC(=O)C4CC4)c3)c(F)c2)cc1C(F)(F)F [Exe. 154]	0.13
O=C(Nc1cc(F)cc(C(F)(F)F)c1)Nc1ccc(Oc2ccnc(NC(=O)C3CC3)c2)c(F)c1 [Exe. 155]	0.571
O=C(Nc1ccnc(C(F)(F)F)c1)Nc1ccc(Oc2ccnc(NC(=O)C3CC3)c2)c(F)c1 [Exe. 158]	1.04
O=C(Nc1ccc(Oc2ccnc(NC(=O)C3CC3)c2)c(F)c1)Nc1ccc(C(F)(F)F)cc1Cl [Exe. 160]	4.1
O=C(Nc1cncc(C(F)(F)F)c1)Nc1ccc(Oc2ccnc(NC(=O)C3CC3)c2)c(F)c1 [Exe. 169]	0.34
O=C(Nc1cc(N2CCOCC2=O)cc(C(F)(F)F)c1)Nc1ccc(Oc2ccnc(NC(=O)C3CC3)c2)c(F)c1 [Exe. 171]	1.98
CN1CCN(c2cc(C(F)(F)F)cc(NC(=O)Nc3ccc(Oc4ccnc(NC(=O)C5CC5)c4)c(F)c3)n2)CC1 [Exe. 172]	0.197
CN1CCC(Nc2cc(C(F)(F)F)cc(NC(=O)Nc3ccc(Oc4ccnc(NC(=O)C5CC5)c4)c(F)c3)n2)CC1 [Exe. 173]	0.254
O=C(Nc1ccc(Oc2ccnc(NC(=O)C3CC3)c2)c(F)c1)Nc1cc(C(F)(F)F)cc(N2CCOCC2)n1 [Exe. 174]	0.24
O=C(Nc1ccc(Oc2ccnc(NC(=O)C3CC3)c2)c(F)c1)Nc1cc(OC(F)(F)F)ccc1F [Exe. 176]	0.06
O=C(Nc1ccc(Oc2ccnc(NC(=O)C3CC3)c2)c(F)c1)Nc1ccc(F)c(OC(F)(F)F)c1 [Exe. 177]	0.69
CC(F)(F)c1cc(F)cc(NC(=O)Nc2ccc(Oc3ccnc(NC(=O)C4CC4)c3)c(F)c2)c1 [Exe. 179]	0.206
CC(F)(F)c1cccc(NC(=O)Nc2ccc(Oc3ccnc(NC(=O)C4CC4)c3)c(F)c2)c1 [Exe. 180]	0.152
O=C(Nc1ccc(Oc2ccnc(NC(=O)C3CC3)c2)c(F)c1)Nc1ccc(C(F)(F)F)c(Cl)c1 [Exe. 185]	1.48
Cc1cc(Oc2ccnc(NC(=O)C3CC3)c2)ccc1NC(=O)Nc1cc(F)cc(C(F)(F)F)c1 [Exe. 192]	2.91

These molecules were tested on pERK in MDA-MB-231 cells (assay: Inhibitory activity at pERK (In Cell Western, MDA-MB-231 cells)). Settings: Homo sapiens, MDA-MB-231, MDA-MB-231 cells; read-out: MDA-MB-231 pERK IC50.
Type: cell-based
Procedure: Inhibitory Activity of Compounds at pERK
When the cells reach 80% confluency, collect cells by trypsinization and centrifugation at 800 rpm for 3 minutes. Resuspend cells with appropriate volume of medium and count cell numbers. Adjust cell concentration to 70000 cells/mL, and split 100 μL cell suspension per well into 96-well plates. Transfer the plates into cell culture incubator (37° C., 5% CO2) and incubate cells overnight. Discard the medium, wash with PBS once, Prepare compound serial dilutions in culture medium with total 8 compound concentrations at 3-fold serial dilutions (the final top concentration starts from 30 μM). Dispense 75 μL DMEM medium (with 0.1% BSA) and 25 μL of each test compound dilution into corresponding wells with DMSO at 0.3% final concentration. Continue incubating cells in cell culture incubator for additional 2 hrs at 37° C., 5% CO2. Discard culture medium, and wash cells once with PBS. Add 100 μL of 4% formaldehyde solution to each well and fix for 20 min. Discard the formaldehyde, then add 100 μL ice-cold 100% methanol at 4° C. for 20 min. Discard methanol, wash with PBS three times. Add to each well 100 μL of 2% BSA solution, seal for 30 min at room temperature. Discard the BSA solution, add to each well 50 μL of the 1st antibody solution (prepared with 2% BSA, 1:250 dilution), incubate at 4° C. overnight. Discard the 1^St antibody solution, wash with PBS four times. Add to each well […] the 2nd antibody solution (prepared with 1% BSA, 1:1000 dilution), incubate at room temperature for 1 hr. Discard the 2nd antibody solution, wash with PBS four times, add to each well 100 μL PI solution (1.5 μM), incubate at room temperature for 30 min. Use Acumen (TPP) to measure the fluorescence. • [Samples]: Compounds in the examples and sorafenib (positive control) • [Data Analysis]: Use CBIS data analysis software to calculate IC50 values

Structure (SMILES)	IC50 [µM]
Cc1ccc(NC(=O)Nc2ccc(Oc3ccnc(NC(=O)C4CC4)c3)cc2)cc1C(F)(F)F [Exe. 140]	0.0106
CC(F)(F)c1cc(NC(=O)Nc2ccc(Oc3ccnc(NC(=O)C4CC4)c3)cc2)ccc1F [Exe. 150]	0.0204
Cc1ccc(NC(=O)Nc2ccc(Oc3ccnc(NC(=O)C4CC4)c3)c(F)c2)cc1C(F)(F)F [Exe. 154]	0.0149
O=C(Nc1cc(F)cc(C(F)(F)F)c1)Nc1ccc(Oc2ccnc(NC(=O)C3CC3)c2)c(F)c1 [Exe. 155]	0.195
O=C(Nc1ccnc(C(F)(F)F)c1)Nc1ccc(Oc2ccnc(NC(=O)C3CC3)c2)c(F)c1 [Exe. 158]	0.0819
O=C(Nc1ccc(Oc2ccnc(NC(=O)C3CC3)c2)c(F)c1)Nc1ccc(C(F)(F)F)cc1Cl [Exe. 160]	0.186
O=C(Nc1cncc(C(F)(F)F)c1)Nc1ccc(Oc2ccnc(NC(=O)C3CC3)c2)c(F)c1 [Exe. 169]	0.043
O=C(Nc1cc(N2CCOCC2=O)cc(C(F)(F)F)c1)Nc1ccc(Oc2ccnc(NC(=O)C3CC3)c2)c(F)c1 [Exe. 171]	0.0302
CN1CCN(c2cc(C(F)(F)F)cc(NC(=O)Nc3ccc(Oc4ccnc(NC(=O)C5CC5)c4)c(F)c3)n2)CC1 [Exe. 172]	0.074
CN1CCC(Nc2cc(C(F)(F)F)cc(NC(=O)Nc3ccc(Oc4ccnc(NC(=O)C5CC5)c4)c(F)c3)n2)CC1 [Exe. 173]	0.08
O=C(Nc1ccc(Oc2ccnc(NC(=O)C3CC3)c2)c(F)c1)Nc1cc(C(F)(F)F)cc(N2CCOCC2)n1 [Exe. 174]	0.0606
O=C(Nc1ccc(Oc2ccnc(NC(=O)C3CC3)c2)c(F)c1)Nc1cc(OC(F)(F)F)ccc1F [Exe. 176]	0.04
O=C(Nc1ccc(Oc2ccnc(NC(=O)C3CC3)c2)c(F)c1)Nc1ccc(F)c(OC(F)(F)F)c1 [Exe. 177]	0.037
CC(F)(F)c1cc(F)cc(NC(=O)Nc2ccc(Oc3ccnc(NC(=O)C4CC4)c3)c(F)c2)c1 [Exe. 179]	0.0515
CC(F)(F)c1cccc(NC(=O)Nc2ccc(Oc3ccnc(NC(=O)C4CC4)c3)c(F)c2)c1 [Exe. 180]	0.0317
O=C(Nc1ccc(Oc2ccnc(NC(=O)C3CC3)c2)c(F)c1)Nc1ccc(C(F)(F)F)c(Cl)c1 [Exe. 185]	0.0464
Cc1cc(Oc2ccnc(NC(=O)C3CC3)c2)ccc1NC(=O)Nc1cc(F)cc(C(F)(F)F)c1 [Exe. 192]	0.02

Each molecule was assayed against KDR kinase (790-1356 AA) (Homo sapiens (Human), UniProt P35968) (assay: Inhibitory activity at KDR kinase (Lance Ultra Ulight-TK assay)). Settings: not given.
Sequence of KDR kinase (790-1356 AA) (P35968 790-1356): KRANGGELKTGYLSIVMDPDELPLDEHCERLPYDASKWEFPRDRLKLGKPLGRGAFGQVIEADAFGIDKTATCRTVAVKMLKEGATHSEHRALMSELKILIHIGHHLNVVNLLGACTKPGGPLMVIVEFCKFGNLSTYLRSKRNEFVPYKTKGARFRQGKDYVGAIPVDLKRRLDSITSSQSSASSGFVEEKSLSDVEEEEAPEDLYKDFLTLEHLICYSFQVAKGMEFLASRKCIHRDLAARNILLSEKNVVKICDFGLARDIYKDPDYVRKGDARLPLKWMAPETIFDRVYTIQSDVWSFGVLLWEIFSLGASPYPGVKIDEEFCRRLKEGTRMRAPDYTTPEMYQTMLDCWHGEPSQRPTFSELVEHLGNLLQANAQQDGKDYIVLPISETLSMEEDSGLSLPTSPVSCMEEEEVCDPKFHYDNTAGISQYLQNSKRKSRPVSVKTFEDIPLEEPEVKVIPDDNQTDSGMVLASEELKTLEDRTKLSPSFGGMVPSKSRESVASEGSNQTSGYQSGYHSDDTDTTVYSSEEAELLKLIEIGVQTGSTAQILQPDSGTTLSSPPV
Type: biochemical
Procedure: Inhibitory Activity of Compounds at KDR Kinase
• [Experimental method]: Use Lance@Ultra Ulight™-TK assay kit from PerKinElmer to evaluate the inhibitory activity of compounds at KDR kinase. • [Instrument]: PerKinElmer's ENVISION plate reader • [Materials]: Optiplate-384 well plate (PerKinElmer), kinase buffer (50 mM Hepes pH7.5, 0.25 mM EGTA, 2 mM DTT, 0.01% Tween 20, 10 mM Mg^2+, 0.5 mM Mn^2+), KDR kinase (790-1356 AA, Crown Bioscience), KDR kinase substrate (PerKinElmer catalogue # TRF0127-M), Lance@Eu-W1024-anti-phosphotyrosine (PT66) (PerKinElmer, catalogue #AD0068), ATP (Invitrogen), DMSO (Sigma, catalogue #34869), purified water (Millipore, type: Milli-Q). • [Study conditions]: Mix KDR (final concentration: 20 nM) and compound (final DMSO: 0.5%), pre-incubate for 20 min at 30° C.; then add ATP (final concentration: 90 μM) and the substrate (final concentration […]). React for 2 hrs at 30° C. After the reaction, add antibody and reaction for 60 min at 30° C. Read the plate (615 nm, 665 nm), calculate the ratio of the value at 665 nm vs 615 nm and analyze the data. • [Samples]: Compounds in the examples and Sorafenib (positive control) • [Data Analysis]: Use CBIS data analysis software to calculate IC50 values

Structure (SMILES)	IC50 [µM]
Cc1ccc(NC(=O)Nc2ccc(Oc3ccnc(NC(=O)C4CC4)c3)cc2)cc1C(F)(F)F [Exe. 140]	0.01
CC(F)(F)c1cc(NC(=O)Nc2ccc(Oc3ccnc(NC(=O)C4CC4)c3)cc2)ccc1F [Exe. 150]	0.0115
Cc1ccc(NC(=O)Nc2ccc(Oc3ccnc(NC(=O)C4CC4)c3)c(F)c2)cc1C(F)(F)F [Exe. 154]	0.0113
O=C(Nc1cc(F)cc(C(F)(F)F)c1)Nc1ccc(Oc2ccnc(NC(=O)C3CC3)c2)c(F)c1 [Exe. 155]	0.0121
O=C(Nc1ccnc(C(F)(F)F)c1)Nc1ccc(Oc2ccnc(NC(=O)C3CC3)c2)c(F)c1 [Exe. 158]	0.0083
O=C(Nc1ccc(Oc2ccnc(NC(=O)C3CC3)c2)c(F)c1)Nc1ccc(C(F)(F)F)cc1Cl [Exe. 160]	0.0078
O=C(Nc1cncc(C(F)(F)F)c1)Nc1ccc(Oc2ccnc(NC(=O)C3CC3)c2)c(F)c1 [Exe. 169]	0.0146
O=C(Nc1cc(N2CCOCC2=O)cc(C(F)(F)F)c1)Nc1ccc(Oc2ccnc(NC(=O)C3CC3)c2)c(F)c1 [Exe. 171]	0.0124
CN1CCN(c2cc(C(F)(F)F)cc(NC(=O)Nc3ccc(Oc4ccnc(NC(=O)C5CC5)c4)c(F)c3)n2)CC1 [Exe. 172]	0.0148
CN1CCC(Nc2cc(C(F)(F)F)cc(NC(=O)Nc3ccc(Oc4ccnc(NC(=O)C5CC5)c4)c(F)c3)n2)CC1 [Exe. 173]	0.0225
O=C(Nc1ccc(Oc2ccnc(NC(=O)C3CC3)c2)c(F)c1)Nc1cc(C(F)(F)F)cc(N2CCOCC2)n1 [Exe. 174]	0.0054
O=C(Nc1ccc(Oc2ccnc(NC(=O)C3CC3)c2)c(F)c1)Nc1cc(OC(F)(F)F)ccc1F [Exe. 176]	0.0057
O=C(Nc1ccc(Oc2ccnc(NC(=O)C3CC3)c2)c(F)c1)Nc1ccc(F)c(OC(F)(F)F)c1 [Exe. 177]	0.0095
CC(F)(F)c1cc(F)cc(NC(=O)Nc2ccc(Oc3ccnc(NC(=O)C4CC4)c3)c(F)c2)c1 [Exe. 179]	0.0105
CC(F)(F)c1cccc(NC(=O)Nc2ccc(Oc3ccnc(NC(=O)C4CC4)c3)c(F)c2)c1 [Exe. 180]	0.0098
O=C(Nc1ccc(Oc2ccnc(NC(=O)C3CC3)c2)c(F)c1)Nc1ccc(C(F)(F)F)c(Cl)c1 [Exe. 185]	0.0123
Cc1cc(Oc2ccnc(NC(=O)C3CC3)c2)ccc1NC(=O)Nc1cc(F)cc(C(F)(F)F)c1 [Exe. 192]	0.0175
